How the values were obtained:
[1] = test system: Metastase; conditions: literature, cited from earlier work
[2] = test system: B-16a-Melanom-Zellen; conditions: literature; metastasis induced by intravenous B-16a melanoma cells; cited from earlier work
[3] = test system: B-16a-amelanotischen Melanom-Zellen; assay: Metastasis of tail-vein injected B-16a melanoma cells (lung tumour colonies) in mice; assay type: in vivo, C57BL/6J Mäuse; conditions: Theophyllin 200 µg injected 1 h before the tumour cells; 5 x 10^4 cells i.v.; mean ± SEM, n = 6
Text: Wie bereits weiter oben festgestellt wurde, ist die Metastase […], die durch eine Reihe komplizierter Vorgänge dargestellt wird. Gegenwärtig finden zwei "Modell"-Systeme für die Untersuchung der in vivo-Metastase verbreitete Anwendung. Das erste Modellsystem umfaßt die subkutane Injektion der Tumorzellen in das Tier. Die subkutane Injektion der Tumorzellen und anschließende Entwicklung eines Primärtumors, gefolgt von spontaner Metastase, wird als "volle" Metastase betrachtet. Ein anderes Modellsystem umfaßt die Injektion der Tumorzellen durch die Schwanzvene. In Anbetracht der Komplexität der Metastase gilt die Schwanzvenen-Injektion als künstliches und nur partielles Modellsystem, da es nur die Vorgänge während des letzteren Teils der Metastase wiedergibt. Das Schwanzvenen-Modellsystem gilt jedoch auch als außerordentlich günstig im Hinblick auf eine Standardisierung der Versuchsbedingungen [vgl."Methods in Cancer Research", Kapitel VII, Academic Press, Inc., 1978].
Als Kontrolltiere wurden (unbehandelte) C57B1/6J-Mäuse nach folgender Arbeitsweise auf volle Metastase untersucht. Zellsuspensionen der B-16 - und 3LL-Karzinom-Zellen, die wie oben unter A und B beschrieben erhalten worden waren, wurden subkutan in die rechte Achselhöhlenregion der männlichen C57BL/6J-Mäuse injiziert (0,66 mm- = 26 gauge -Nadel; 0,2 ml). Injiziert wurden verschiedene Mengen der Zellsuspensionen im Bereich von 1 x 10^5 bis 1 x 10^6 Zellen. Versuche zur partiellen Metastase wurden in der Weise durchgeführt, daß Tumorzellen über die Schwanzvene in die (unbehandelten) Kontroll-Mäuse injiziert wurden. Die Tiere wurden unter identischen Bedingungen der Temperatur, Lichteinwirkungsdauer, Ernährung etc. gehalten. Nach einem Beobachtungszeitraum von 17 bis 30 Tagen wurden die für die volle Metastase und für die partielle Metastase verwendeten Tiere getötet, und die Lungen, Leber, Nieren, Milz und Gehirn-Gewebe wurde entnommen.
Das entnommene Gewebe wurde in Bouin-Lösung fixiert.
Die Zahl der metastatischen Knötchen in jedem Organ wurde mit Hilfe eines Bausch-und-Lomb Stereo-Zoom-Mikroskops bestimmt. Die Untersuchung der Kontroll- Mäuse auf metastatische Knötchen ergab bei 100 % der Tiere positive Befunde in bezug auf metastatische Lungentumoren; die Inkubationszeit für die Erzeugung solcher Metastasen betrug für die 3LL-Tumorzellen 17 bis 21 Tage und für die B-16 a -Tumorzellen 23 bis 30 Tage. In Leber, Nieren, Milz oder Gehirn-Gewebe wurden keine sichtbaren Knötchen beobachtet.
3 mg 3-Methyl-1-[2-(2-naphthyloxy)-ethyl]-2-pyrazolin-5-on wurden in 0,6 ml absolutem Ethylalkohol suspendiert. Das suspendierte Pyrazolon wurde durch Einstellen des pH auf 9,5 mit NaOH gelöst. […]

[4] = test system: Lewis-Lungen-Karzinom; assay: Tumour incidence and final tumour weight of subcutaneous Lewis lung carcinoma in mice; assay type: in vivo, C57BL/6J Mäuse; conditions: killed day 22
Text: Die antineoplastische Wirksamkeit wurde außerdem durch direkte Messung des Wachstums der Tumorzellen in vitro in Gewebekulturen bestimmt. Diese Methode bedient sich des "Plating" oder Aufimpfens einer bekannten Anzahl von Tumorzellen auf ein Wachstumsmedium und der Bestimmung der Wirkung der Anwesenheit der zu prüfenden Verbindung auf die Tumorzellen-Proliferation. Schließlich wurde die antineoplastische Aktivität in vivo in der Weise bestimmt, daß den Mäusen subkutan Tumorzellen injiziert wurden und das Auftreten von Tumorzellenwachstum sowie das Gewicht der wachsenden Tumorzellen in unbehandelten Kontrolltieren und in mit der Pyrazolon-Verbindung behandelten Tieren bestimmt wurden.
3 mg 3-Methyl-1-[2-(2-naphthyloxy)-ethyl]-2-pyrazolin-5-on wurden in 0,6 ml Ethylalkohol gelöst, und die Lösung wurde mit konzentrierter Natronlauge auf einen pH von 9,5 eingestellt.
Syngeneischen C57BL/6J Wirts-Mäusen wurden 1 x 10^5 Lewis-Lungenkarzinom-Zellen (0,2 ml) subkutan in die Achselhöhlenregion injiziert. Nach einem Zeitraum von 24 Stunden wurde die Pyrazolon-Verbindung 21 Tage lang täglich verabreicht. Die Wirkung der Verabreichung von Theophyllin zusammen mit der Pyrazolon-Verbindung wurde ebenfalls untersucht. Während des Zeitraums wurden die Mäuse unter identischen Bedingungen der Temperatur, Lichteinwirkungsdauer, Ernährung etc. gehalten. Die Mäuse wurden 22 Tage nach der Injektion der Tumorzellen getötet und mittels einer Gesamt-Nekropsie auf die Anwesenheit subkutaner Tumoren untersucht. Vorhandene Tumoren wurden entfernt und auf einer Analysenwaage gewogen.

## CC(=O)Oc1ccccc1C(=O)O [Aspirin]
[1]
  Metastase: gemischte Ergebnisse

## CC(=O)CC(c1ccccc1)c1c(O)c2ccccc2oc1=O (stereo not shown) [Warfarin]
[1]; after intravenous injection of tumour cells and in spontaneously metastasising tumours
  antimetastatische Wirkungen: signifikante antimetastatische Wirkungen

## CCCCC[C@H](O)/C=C/[C@@H]1[C@H]2C/C(=C/CCCC(=O)O)O[C@H]2C[C@H]1O [Prostacyclin]
[2]
  Metastase: verhindert werden kann

## Cn1c(=O)c2[nH]cnc2n(C)c1=O [Theophyllin, reference compound]
[3]
  Lungen-Tumor-Kolonien: 165 ± 38
[4]; 250 µg Theophyllin daily i.p. in 0,4 ml
  Tumor-Häufigkeit Anzahl: 9/12
[4]; 250 µg Theophyllin daily i.p.
  Tumor-Häufigkeit %: 75%
[4]; final tumour weight, 250 µg Theophyllin daily i.p.
  Gewicht: 1.58 ± 0.42 mg

— patent publication EP0062319A1, “3-Methyl-1-(2-(3-naphthyloxy)-ethyl)-2-pyrazolin-5-one for the treatment of the metastasis and growth of tumour cells” (BAYER AG, priority 1981, dated 1982)
